Patent publication US9145472B2, “Charge reversible polymers” (Wyoming Research Products Center, priority 2006, dated 2015)

Assays:
[1] = pH-dependent hydrolysis of model amides monitored by 1H-NMR; assay type: physicochemical
Experimental: Model compound synthesis and hydrolytic kinetics measurement (Scheme 4—FIG. 4): Briefly, N,N-diethylamine (415 μL, 4 mmol) and 1,2-cis-cyclohexanedicarboxylic anhydride (617 mg, 4 mmol) were dissolved in 10 mL dichloride methane. The reaction was kept at room temperature for 2 h with stirring. The solvent was then removed by rotary evaporation to obtain the raw product. The raw product was purified by recrystallizing from benzene to get 2-[(diethylamino)carbonyl]cyclohexanecarboxylic acid. 1H NMR (400 MHz, CDCl3): δ (ppm): 3.60-3.22 (m), 2.77 (m), 2.51-2.45 (m), 1.87-1.66 (m), 1.58-1.46 (m), 1.49-1.39 (m), 1.28 (q), 1.17 (t). Similarly, 2-[(isopropylamino)carbonyl]cyclohexanecarboxylic acid was synthesized. 1H NMR (400 MHz, CDCl3): δ (ppm): 3.83 (q), 2.73 (q), 2.64 (q), 1.87 (m), 1.79 (m), 1.64 (m), 1.45 (m), 1.33 (m), 1.01 (d).
The hydrolysis of the model compounds was monitored by 1H-NMR. Briefly, 2-[(isopropylamino)carbonyl]cyclohexanecarboxylic acid (10 mg) was dissolved in 2 mL D2O. Sodium carbonate was used to adjust the solution pH to 5.0, 6.0 or 7.4 at 37° C. At predesigned time intervals, 1HNMR spectra of the solution were measured on a Bruker Avance DRX-400 spectrometer. The hydrolysis was monitored by measuring the integrations of the peaks at 3.77-3.9 ppm (CH in the amide of propan-2-amine) and the 3.3-3.5 ppm (CH in the propan-2-amine).
The hydrolysis of model amides of primary and secondary amines made from cis-1,2-cyclohexanedicarboxylic anhydride was tested at different pH values.

nuclear DNA = conditions: cited from earlier work

| hydrolysis of the amide ([1]; pH 5, 37° C.) | hydrolysis of the amide ([1]; pH 6, 37° C.) | extent of amide hydrolysis ([1]; pH 7.4, after 60 h) [%] | hydrolysis of the amide ([1]; pH 7.4) | SMILES | molecules that enter the cell that actually bind the nuclear DNA (nuclear DNA) |
| --- | --- | --- | --- | --- | --- |
| almost instantly hydrolyzed | slightly slower | 50 | – | CCN(CC)C(=O)C1CCCCC1C(=O)O (stereo not shown) [amide of the secondary amine, 2-[(diethylamino)carbonyl]cyclohexanecarboxylic acid] | – |
| hydrolyzed more slowly | hydrolyzed more slowly | – | did not hydrolyze | CC(C)NC(=O)C1CCCCC1C(=O)O (stereo not shown) [amide of the primary amine, 2-[(isopropylamino)carbonyl]cyclohexanecarboxylic acid] | – |
| – | – | – | – | N.N.[Cl][Pt][Cl] [cisplatin] | less than 1% |
